Test results reported in patent publication US20210045385A1, “PYRIDAZINONE-SUBSTITUTED KETOXIMES AS HERBICIDES” (FMC Corporation, priority 2018, published 2021).

Experiments:
Assay type in all cases: in vivo
[1] = tested on: Italian ryegrass (Lolium multiflorum); assay: Test A preemergence, visual plant response rating; settings: approx. 10 days
In short: (§1)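 Ratings use a 0–100 visual scale (100 = complete control) against untreated controls, scored about 10 days after greenhouse treatment. Test chemicals were formulated in surfactant-containing non-phytotoxic solvent and applied either as soil spray after planting (preemergence) or onto one- to two-leaf, 2–10 cm plants (postemergence).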

[2] = tested on: barnyardgrass (Echinochloa crus-galli); assay: Test A preemergence, visual plant response rating; settings: approx. 10 days
In short: as §1

[3] = tested on: foxtail, green (green foxtail, Setaria viridis); assay: Test A preemergence, visual plant response rating; settings: approx. 10 days
In short: as §1

kochia (Kochia scoparia) [4] = assay: Test A preemergence, visual plant response rating; settings: approx. 10 days
In short: as §1

[5] = tested on: pigweed (Amaranthus retroflexus); assay: Test A preemergence, visual plant response rating; settings: approx. 10 days
In short: as §1

[6] = tested on: ragweed (common ragweed, Ambrosia elatior); assay: Test A preemergence, visual plant response rating; settings: approx. 10 days
In short: as §1

[7] = tested on: Italian ryegrass (Lolium multiflorum); assay: Test A postemergence, visual plant response rating; settings: for Ryegrass, Italian plant response rating (0 to 100 scale): 500 g ai/ha, postemergence, 0 is no effect, 100 is complete control; for Ryegrass, Italian plant response rating: Postemergence, 125 g ai/ha, 0 to 100 scale (0 no effect, 100 complete control)
In short: as §1

[8] = tested on: barnyardgrass (Echinochloa crus-galli); assay: Test A postemergence, visual plant response rating; settings: for Barnyardgrass plant response rating (0 to 100 scale): 500 g ai/ha, postemergence, 0 is no effect, 100 is complete control; for Barnyardgrass plant response rating: Postemergence, 125 g ai/ha, 0 to 100 scale (0 no effect, 100 complete control)
In short: as §1

[9] = tested on: blackgrass (Alopecurus myosuroides); assay: Test A postemergence, visual plant response rating; settings: for Blackgrass plant response rating (0 to 100 scale): 500 g ai/ha, postemergence, 0 is no effect, 100 is complete control; for Blackgrass plant response rating: Postemergence, 125 g ai/ha, 0 to 100 scale (0 no effect, 100 complete control)
In short: as §1

corn (Zea mays) = assay: Test A postemergence, visual plant response rating; settings: for Corn plant response rating (0 to 100 scale): 500 g ai/ha, postemergence, 0 is no effect, 100 is complete control; for Corn plant response rating: Postemergence, 125 g ai/ha, 0 to 100 scale (0 no effect, 100 complete control)
In short: as §1

[10] = tested on: foxtail, green (green foxtail, Setaria viridis); assay: Test A postemergence, visual plant response rating; settings: for Foxtail, Green plant response rating (0 to 100 scale): 500 g ai/ha, postemergence, 0 is no effect, 100 is complete control; for Foxtail, Green plant response rating: Postemergence, 125 g ai/ha, 0 to 100 scale (0 no effect, 100 complete control)
In short: as §1

[11] = tested on: galium (catchweed bedstraw, Galium aparine); assay: Test A postemergence, visual plant response rating; settings: for Galium plant response rating (0 to 100 scale): 500 g ai/ha, postemergence, 0 is no effect, 100 is complete control; for Galium plant response rating: Postemergence, 125 g ai/ha, 0 to 100 scale (0 no effect, 100 complete control)
In short: as §1

kochia (Kochia scoparia) [12] = assay: Test A postemergence, visual plant response rating; settings: for Kochia plant response rating (0 to 100 scale): 500 g ai/ha, postemergence, 0 is no effect, 100 is complete control; for Kochia plant response rating: Postemergence, 125 g ai/ha, 0 to 100 scale (0 no effect, 100 complete control)
In short: as §1

[13] = tested on: pigweed (Amaranthus retroflexus); assay: Test A postemergence, visual plant response rating; settings: for Pigweed plant response rating (0 to 100 scale): 500 g ai/ha, postemergence, 0 is no effect, 100 is complete control; for Pigweed plant response rating: Postemergence, 125 g ai/ha, 0 to 100 scale (0 no effect, 100 complete control)
In short: as §1

[14] = tested on: ragweed (common ragweed, Ambrosia elatior); assay: Test A postemergence, visual plant response rating; settings: for Ragweed plant response rating (0 to 100 scale): 500 g ai/ha, postemergence, 0 is no effect, 100 is complete control; for Ragweed plant response rating: Postemergence, 125 g ai/ha, 0 to 100 scale (0 no effect, 100 complete control)
In short: as §1

[15] = tested on: wheat (Triticum aestivum); assay: Test A postemergence, visual plant response rating; settings: for Wheat plant response rating (0 to 100 scale): 500 g ai/ha, postemergence, 0 is no effect, 100 is complete control; for Wheat plant response rating: Postemergence, 125 g ai/ha, 0 to 100 scale (0 no effect, 100 complete control)
In short: as §1

[16] = tested on: barnyardgrass (Echinochloa crus-galli); assay: Test B flooded paddy test, visual plant response rating; settings: 250 g ai/ha, Flood, applied to paddy water, 2-leaf stage, evaluated after 13 to 15 days
In short: (§2)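 Seedlings at 2 leaves; compound into paddy water (3 cm flood, maintained); 13–15 d greenhouse; visual score relative to controls.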

[17] = tested on: ducksalad (Heteranhera limosa); assay: as above; settings: 250 g ai/ha, Flood, applied to paddy water, 2-leaf stage, evaluated after 13 to 15 days
In short: as §2

rice (Oryza sativa) = assay: as above; settings: 250 g ai/ha, Flood, applied to paddy water, 2-leaf stage, evaluated after 13 to 15 days
In short: as §2

[18] = tested on: sedge, umbrella (small-flower umbrella sedge, Cyperus difformis); assay: as above; settings: 250 g ai/ha, Flood, applied to paddy water, 2-leaf stage, evaluated after 13 to 15 days
In short: as §2

Row | Structure (SMILES) | Ryegrass, Italian plant response rating (0 to 100 scale) ([1]; 125 g ai/ha Preemergence) | Ryegrass, Italian plant response rating (0 to 100 scale) ([1]; 500 g ai/ha Preemergence) | Barnyardgrass plant response rating (0 to 100 scale) ([2]; 125 g ai/ha Preemergence) | Barnyardgrass plant response rating (0 to 100 scale) ([2]; 500 g ai/ha Preemergence) | Foxtail, Green plant response rating (0 to 100 scale) ([3]; 125 g ai/ha Preemergence) | Foxtail, Green plant response rating (0 to 100 scale) ([3]; 500 g ai/ha Preemergence) | Kochia plant response rating (0 to 100 scale) (kochia (Kochia scoparia) [4]; 125 g ai/ha Preemergence) | Kochia plant response rating (0 to 100 scale) (kochia (Kochia scoparia) [4]; 500 g ai/ha Preemergence) | Pigweed plant response rating (0 to 100 scale) ([5]; 125 g ai/ha Preemergence) | Pigweed plant response rating (0 to 100 scale) ([5]; 500 g ai/ha Preemergence) | Ragweed plant response rating (0 to 100 scale) ([6]; 125 g ai/ha Preemergence) | Ragweed plant response rating (0 to 100 scale) ([6]; 500 g ai/ha Preemergence) | Ryegrass, Italian plant response rating (0 to 100 scale) [7] | Ryegrass, Italian plant response rating [7] | Barnyardgrass plant response rating (0 to 100 scale) [8] | Barnyardgrass plant response rating [8] | Blackgrass plant response rating (0 to 100 scale) [9] | Blackgrass plant response rating [9] | Corn plant response rating (0 to 100 scale) (corn (Zea mays)) | Corn plant response rating (corn (Zea mays)) | further results
1 | CCO/N=C(\c1cccc(Cl)c1)c1c(O)c(C)nn(C)c1=O [Compound 8] | 50 | 50 | 0 | 20 | 10 | 30 | 10 | 60 | 30 | 90 | 0 | 100 | 60 | 30 | 10 | 0 | 20 | 0 | 0 | 0 | Foxtail, Green plant response rating (0 to 100 scale) [10]: 20; Foxtail, Green plant response rating [10]: 10; Galium plant response rating (0 to 100 scale) [11]: 90; Galium plant response rating [11]: 80; Kochia plant response rating (0 to 100 scale) (kochia (Kochia scoparia) [12]): 70; Kochia plant response rating (kochia (Kochia scoparia) [12]): 10; Pigweed plant response rating (0 to 100 scale) [13]: 20; Pigweed plant response rating [13]: 0; Ragweed plant response rating (0 to 100 scale) [14]: 80; Ragweed plant response rating [14]: 20; Wheat plant response rating (0 to 100 scale) [15]: 0; Wheat plant response rating [15]: 0; Plant response rating, Barnyardgrass (0 to 100 scale, 0 is no effect, 100 is complete control) [16]: 0; Plant response rating, Ducksalad (0 to 100 scale, 0 is no effect, 100 is complete control) [17]: 0; Plant response rating, Rice (0 to 100 scale, 0 is no effect, 100 is complete control) (rice (Oryza sativa)): 0; Plant response rating, Sedge, Umbrella (0 to 100 scale, 0 is no effect, 100 is complete control) [18]: 0
2 | CCO/N=C(/c1cccc(Cl)c1)c1c(O)c(C)nn(C)c1=O [Compound 9] | 20 | 40 | 0 | 50 | 20 | 40 | 10 | 60 | 40 | 90 | 80 | 90 | 60 | 40 | 20 | 0 | 20 | 0 | 10 | 0 | Foxtail, Green plant response rating (0 to 100 scale) [10]: 30; Foxtail, Green plant response rating [10]: 10; Galium plant response rating (0 to 100 scale) [11]: 90; Galium plant response rating [11]: 80; Kochia plant response rating (0 to 100 scale) (kochia (Kochia scoparia) [12]): 60; Kochia plant response rating (kochia (Kochia scoparia) [12]): 10; Pigweed plant response rating (0 to 100 scale) [13]: 20; Pigweed plant response rating [13]: 0; Ragweed plant response rating (0 to 100 scale) [14]: 80; Ragweed plant response rating [14]: 30; Wheat plant response rating (0 to 100 scale) [15]: 0; Wheat plant response rating [15]: 0; Plant response rating, Barnyardgrass (0 to 100 scale, 0 is no effect, 100 is complete control) [16]: 0; Plant response rating, Ducksalad (0 to 100 scale, 0 is no effect, 100 is complete control) [17]: 0; Plant response rating, Rice (0 to 100 scale, 0 is no effect, 100 is complete control) (rice (Oryza sativa)): 0; Plant response rating, Sedge, Umbrella (0 to 100 scale, 0 is no effect, 100 is complete control) [18]: 0
3 | CO/N=C(\c1cccc(C)c1)c1c(O)c(C)nn(C)c1=O [Compound 13] | 50 | 100 | 0 | 80 | 0 | 20 | 30 | 30 | 90 | 80 | 30 | 100 | 90 | 80 | 50 | 10 | 50 | 10 | 10 | 0 | Foxtail, Green plant response rating (0 to 100 scale) [10]: 60; Foxtail, Green plant response rating [10]: 10; Galium plant response rating (0 to 100 scale) [11]: 100; Galium plant response rating [11]: 90; Kochia plant response rating (0 to 100 scale) (kochia (Kochia scoparia) [12]): 60; Kochia plant response rating (kochia (Kochia scoparia) [12]): 20; Pigweed plant response rating (0 to 100 scale) [13]: 90; Pigweed plant response rating [13]: 40; Ragweed plant response rating (0 to 100 scale) [14]: 70; Ragweed plant response rating [14]: 70; Wheat plant response rating (0 to 100 scale) [15]: 0; Wheat plant response rating [15]: 0; Plant response rating, Barnyardgrass (0 to 100 scale, 0 is no effect, 100 is complete control) [16]: 0; Plant response rating, Ducksalad (0 to 100 scale, 0 is no effect, 100 is complete control) [17]: 0; Plant response rating, Rice (0 to 100 scale, 0 is no effect, 100 is complete control) (rice (Oryza sativa)): 0; Plant response rating, Sedge, Umbrella (0 to 100 scale, 0 is no effect, 100 is complete control) [18]: 0
4 | CCO/N=C(\c1ccccc1C)c1c(O)c(C)nn(C)c1=O [Compound 14] | 20 | 90 | 40 | 80 | 20 | 70 | 0 | 20 | 0 | 50 | 80 | 80 | 60 | 60 | 40 | 20 | 60 | 30 | 10 | 0 | Foxtail, Green plant response rating (0 to 100 scale) [10]: 40; Foxtail, Green plant response rating [10]: 20; Galium plant response rating (0 to 100 scale) [11]: 90; Galium plant response rating [11]: 90; Kochia plant response rating (0 to 100 scale) (kochia (Kochia scoparia) [12]): 50; Kochia plant response rating (kochia (Kochia scoparia) [12]): 20; Pigweed plant response rating (0 to 100 scale) [13]: 80; Pigweed plant response rating [13]: 20; Ragweed plant response rating (0 to 100 scale) [14]: 70; Ragweed plant response rating [14]: 60; Wheat plant response rating (0 to 100 scale) [15]: 0; Wheat plant response rating [15]: 0; Plant response rating, Barnyardgrass (0 to 100 scale, 0 is no effect, 100 is complete control) [16]: 0; Plant response rating, Ducksalad (0 to 100 scale, 0 is no effect, 100 is complete control) [17]: 0; Plant response rating, Rice (0 to 100 scale, 0 is no effect, 100 is complete control) (rice (Oryza sativa)): 0; Plant response rating, Sedge, Umbrella (0 to 100 scale, 0 is no effect, 100 is complete control) [18]: 0
